Values after ≈ are worked out from the molar mass of the structure shown.
What was measured:
[1] = test system: N. gonorrhoeae WHO G; assay: Liquid broth MIC in Fastidious broth; conditions: Neisseria gonorrhoeae, read-out: Minimum Inhibitory Concentration (MIC), N. gonorrhoeae WHO G
[2] = test system: E. coli AG100; assay: microbe, parasite or virus in culture; assay type: cell-based; conditions: Escherichia coli, AG100, read-out: MIC E. coli AG100
[3] = test system: E. coli AG100A; assay: Broth microdilution MIC in CAMHB; assay type: cell-based; conditions: Escherichia coli, read-out: MIC E. coli AG100A
[4] = test system: E. coli D22; assay: microbe, parasite or virus in culture; assay type: cell-based; conditions: Escherichia coli, D22, read-out: MIC E. coli D22
[5] = target: T1, PBP3 from Escherichia coli (K-12) (Escherichia coli, UniProt P0AD68); assay: Bocillin-FL fluorescence polarization competition binding, E. coli PBP3
T1 construct: made in house
In short: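 Purified PBPs pre-incubated with inhibitor (E. coli PBP3 1.5 μM, 30 min; P. aeruginosa PBP3 0.75 μM, A. baumannii PBP1a 1 μM and PBP3 0.2 μM, 15 min), then Bocillin-FL 0.1 μM (0.05 μM for PBP1a) added; FP read up to 60 min. EC50 = concentration halving bound Bocillin-FL.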

[6] = test system: K. pneumoniae UMM; assay: microbe, parasite or virus in culture; assay type: cell-based; conditions: Klebsiella pneumoniae, read-out: MIC K. pneumoniae UMM
[7] = test system: P. aeruginosa ATCC 35151; assay: microbe, parasite or virus in culture; assay type: cell-based; conditions: Pseudomonas aeruginosa, ATCC35151, read-out: MIC P. aeruginosa ATCC 35151
[8] = test system: N. gonorrhoeae WHO M; assay: Liquid broth MIC in Fastidious broth; conditions: Neisseria gonorrhoeae, read-out: Minimum Inhibitory Concentration (MIC), N. gonorrhoeae WHO M
Protocol: Liquid broth-based assays were used for antibacterial testing of PBP inhibitors in Neisseria gonorrhoeae. Briefly, cryo-preserved bacterial cultures of clinical strains were streaked for isolation on Chocolate Agar (72 g/L (2×) GC Agar Base (BD #228950) and 2% (2×) Hemoglobin was autoclaved at 121° C. for 20 minutes to sterilize. Once cooled to ˜50° C. the 2×GC Agar Base and 2× Hemoglobin solutions are combined and 1% IsoVitaleX Enrichment (BD #211876) was added to the solution). Strains were incubated at 36° C. and 5% CO2 to allow growth of colonies, 24 hours before inoculum preparation. 2-fold serial dilutions of test compounds were conducted in a 96 well plate with a final volume of 75 μL per well at 2-fold the final desired concentration in Fastidious broth (Remel #R07664). For preparation of assay inoculum, a direct suspension was prepared by aseptically swabbing 10-15 colonies from agar plates into culture tubes containing 2 mL of fresh sterile saline. After the dilution plates were set up, direct suspensions were then diluted in a cuvette containing sterile saline and the optical density was measured at 600 nm. Inocula were diluted such that 75 μL of this culture in Fastidious broth results in a starting bacterial concentration of 5×10^5 CFU/mL when added to the dilution plates. The plates were incubated for ˜24 hours at 36° C. and 5% CO2.

[9] = test system: N. gonorrhoeae WHO X; assay: Liquid broth MIC in Fastidious broth; conditions: Neisseria gonorrhoeae, read-out: Minimum Inhibitory Concentration (MIC), N. gonorrhoeae WHO X
[10] = test system: N. gonorrhoeae WHO L; assay: Liquid broth MIC in Fastidious broth; conditions: Neisseria gonorrhoeae, read-out: Minimum Inhibitory Concentration (MIC), N. gonorrhoeae WHO L
[11] = test system: E. coli 901C; assay: microbe, parasite or virus in culture; assay type: cell-based; conditions: Escherichia coli, read-out: MIC E. coli 901C
[12] = test system: K. pneumoniae 848844; assay: microbe, parasite or virus in culture; assay type: cell-based; conditions: Klebsiella pneumoniae, 848844, read-out: MIC K. pneumoniae 848844
[13] = test system: N. gonorrhoeae MS11; assay: Liquid broth MIC in Fastidious broth; conditions: Neisseria gonorrhoeae, MS11, read-out: Minimum Inhibitory Concentration (MIC), N. gonorrhoeae MS11
[14] = test system: N. gonorrhoeae ATCC 49226; assay: Liquid broth MIC in Fastidious broth; conditions: Neisseria gonorrhoeae, ATCC49226, read-out: Minimum Inhibitory Concentration (MIC), N. gonorrhoeae ATCC 49226

T1 sequence (P0AD68 1-577): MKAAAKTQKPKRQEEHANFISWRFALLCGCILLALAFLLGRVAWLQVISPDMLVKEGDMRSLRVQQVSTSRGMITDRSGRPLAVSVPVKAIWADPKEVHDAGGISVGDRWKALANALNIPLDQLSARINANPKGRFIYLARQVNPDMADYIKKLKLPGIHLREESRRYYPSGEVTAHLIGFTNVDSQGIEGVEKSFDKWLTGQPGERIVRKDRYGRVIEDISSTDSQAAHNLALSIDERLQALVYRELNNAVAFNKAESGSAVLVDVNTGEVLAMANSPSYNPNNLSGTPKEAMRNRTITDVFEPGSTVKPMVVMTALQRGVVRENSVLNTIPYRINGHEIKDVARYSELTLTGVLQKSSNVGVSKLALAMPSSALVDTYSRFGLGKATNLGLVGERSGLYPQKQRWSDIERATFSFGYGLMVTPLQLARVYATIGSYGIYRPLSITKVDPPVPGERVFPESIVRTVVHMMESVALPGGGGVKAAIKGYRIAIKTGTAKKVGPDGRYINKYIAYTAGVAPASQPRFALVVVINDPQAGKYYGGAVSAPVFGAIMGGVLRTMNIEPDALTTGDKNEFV

Structure (SMILES): O=C(O)c1cccc2c1OB(O)[C@@H](NC(=O)C(NS(=O)(=O)C1CC1)c1ccc(P(=O)(O)O)cc1)C2 (stereo partly drawn) [Example 61, (3R)-3-(2-(cyclopropanesulfonamido)-2-(4-phosphonophenyl)acetamido)-2-hydroxy-3,4-dihydro-2H-benzo[e][1,2]oxaborinine-8-carboxylic acid]
- MIC [1]: 16 to 32 µg/mL (≈ 30.5 to 61 µM)
- MIC [2]: > 128 µg/mL
- MIC [3]: > 128 µg/mL
- MIC [4]: > 128 µg/mL
- EC50 [5]: 50 to 250 µM
- MIC [6]: > 128 µg/mL
- MIC [7]: 32 to 64 µg/mL (≈ 61 to 122 µM)
- MIC [8]: 16 to 32 µg/mL (≈ 30.5 to 61 µM)
- MIC [9]: 16 to 32 µg/mL (≈ 30.5 to 61 µM)
- MIC [10]: 16 to 32 µg/mL (≈ 30.5 to 61 µM)
- MIC [11]: 32 to 64 µg/mL (≈ 61 to 122 µM)
- MIC [12]: > 128 µg/mL
- MIC [13]: 16 to 32 µg/mL (≈ 30.5 to 61 µM)
- MIC [14]: 16 to 32 µg/mL (≈ 30.5 to 61 µM)

Structure (SMILES): NC(C(=O)N[C@H]1Cc2ccc(F)c(C(=O)O)c2OB1O)c1ccc(P(=O)(O)O)cc1 (stereo partly drawn) [Example 14, (3R)-3-(2-amino-2-(4-phosphonophenyl)acetamido)-7-fluoro-2-hydroxy-3,4-dihydro-2H-benzo[e][1,2]oxaborinine-8-carboxylic acid]
- MIC [1]: > 64 µg/mL
- MIC [2]: > 128 µg/mL
- MIC [3]: > 128 µg/mL
- MIC [4]: > 128 µg/mL
- EC50 [5]: > 250 µM
- MIC [6]: > 128 µg/mL
- MIC [7]: > 128 µg/mL
- MIC [8]: > 64 µg/mL
- MIC [9]: > 64 µg/mL
- MIC [10]: > 64 µg/mL
- MIC [11]: > 128 µg/mL
- MIC [12]: > 128 µg/mL
- MIC [13]: > 64 µg/mL
- MIC [14]: > 64 µg/mL

Structure (SMILES): O=C(NC(C(=O)N[C@H]1Cc2cccc(C(=O)O)c2OB1O)c1ccc(P(=O)(O)O)cc1)c1ccccn1 (stereo partly drawn) [Example 32, (3R)-2-hydroxy-3-(2-(4-phosphonophenyl)-2-(picolinamido)acetamido)-3,4-dihydro-2H-benzo[e][1,2]oxaborinine-8-carboxylic acid]
- MIC [1]: < 1 µg/mL
- MIC [2]: > 128 µg/mL
- MIC [3]: 32 to 64 µg/mL (≈ 60.9 to 122 µM)
- MIC [4]: 8 to 16 µg/mL (≈ 15.2 to 30.5 µM)
- EC50 [5]: 10 to 50 µM
- MIC [6]: > 128 µg/mL
- MIC [7]: 2 to 4 µg/mL (≈ 3.81 to 7.62 µM)
- MIC [8]: < 1 µg/mL
- MIC [9]: 16 to 32 µg/mL (≈ 30.5 to 60.9 µM)
- MIC [10]: 16 to 32 µg/mL (≈ 30.5 to 60.9 µM)
- MIC [11]: 2 to 4 µg/mL (≈ 3.81 to 7.62 µM)
- MIC [12]: > 128 µg/mL
- MIC [13]: 1 to 2 µg/mL (≈ 1.9 to 3.81 µM)
- MIC [14]: 1 to 2 µg/mL (≈ 1.9 to 3.81 µM)

Structure (SMILES): O=C(O)c1cccc2c1OB(O)[C@@H](NC(=O)C(NC(=O)c1cnc[nH]c1=O)c1ccc(P(=O)(O)O)cc1)C2 (stereo partly drawn) [Example 176, (3R)-2-hydroxy-3-(2-(6-oxo-1,6-dihydropyrimidine-5-carboxamido)-2-(4-phosphonophenyl)acetamido)-3,4-dihydro-2H-benzo[e][1,2]oxaborinine-8-carboxylic acid]
- MIC [1]: 4 to 8 µg/mL (≈ 7.38 to 14.8 µM)
- MIC [2]: > 128 µg/mL
- MIC [3]: > 128 µg/mL
- MIC [4]: > 128 µg/mL
- EC50 [5]: 50 to 250 µM
- MIC [6]: > 128 µg/mL
- MIC [7]: 2 to 4 µg/mL (≈ 3.69 to 7.38 µM)
- MIC [8]: 1 to 2 µg/mL (≈ 1.84 to 3.69 µM)
- MIC [9]: 16 to 32 µg/mL (≈ 29.5 to 59 µM)
- MIC [10]: 16 to 32 µg/mL (≈ 29.5 to 59 µM)
- MIC [11]: 8 to 16 µg/mL (≈ 14.8 to 29.5 µM)
- MIC [12]: > 128 µg/mL
- MIC [13]: 4 to 8 µg/mL (≈ 7.38 to 14.8 µM)
- MIC [14]: 4 to 8 µg/mL (≈ 7.38 to 14.8 µM)

Structure (SMILES): NS(=O)(=O)NC(C(=O)N[C@H]1Cc2cccc(C(=O)O)c2OB1O)c1ccc(P(=O)(O)O)cc1 (stereo partly drawn) [Example 58, (3R)-2-hydroxy-3-(2-(4-phosphonophenyl)-2-(sulfamoylamino)acetamido)-3,4-dihydro-2H-benzo[e][1,2]oxaborinine-8-carboxylic acid]
- MIC [1]: 16 to 32 µg/mL (≈ 32.1 to 64.1 µM)
- MIC [2]: > 128 µg/mL
- MIC [3]: > 128 µg/mL
- MIC [4]: > 128 µg/mL
- EC50 [5]: > 250 µM
- MIC [6]: > 128 µg/mL
- MIC [7]: > 128 µg/mL
- MIC [8]: 16 to 32 µg/mL (≈ 32.1 to 64.1 µM)
- MIC [9]: 16 to 32 µg/mL (≈ 32.1 to 64.1 µM)
- MIC [10]: 16 to 32 µg/mL (≈ 32.1 to 64.1 µM)
- MIC [11]: > 128 µg/mL
- MIC [12]: > 128 µg/mL
- MIC [13]: 16 to 32 µg/mL (≈ 32.1 to 64.1 µM)
- MIC [14]: 16 to 32 µg/mL (≈ 32.1 to 64.1 µM)

Structure (SMILES): Cn1cccc(C(=O)N[C@@H](C(=O)N[C@H]2Cc3cccc(C(=O)O)c3OB2O)c2ccc(P(=O)(O)O)cc2)c1=O (single isomer, unassigned) [Example 182]
- MIC [1]: < 1 µg/mL
- MIC [2]: > 128 µg/mL
- MIC [3]: 32 to 64 µg/mL (≈ 57.6 to 115 µM)
- MIC [4]: 8 to 16 µg/mL (≈ 14.4 to 28.8 µM)
- EC50 [5]: < 10 µM
- MIC [6]: > 128 µg/mL
- MIC [7]: < 1 µg/mL
- MIC [8]: < 1 µg/mL
- MIC [9]: 16 to 32 µg/mL (≈ 28.8 to 57.6 µM)
- MIC [10]: 16 to 32 µg/mL (≈ 28.8 to 57.6 µM)
- MIC [11]: 2 to 4 µg/mL (≈ 3.6 to 7.2 µM)
- MIC [12]: > 128 µg/mL
- MIC [13]: 1 to 2 µg/mL (≈ 1.8 to 3.6 µM)
- MIC [14]: 1 to 2 µg/mL (≈ 1.8 to 3.6 µM)
